Columns and labels:
C481S BTK protein = target: T1, C481S BTK protein (Homo sapiens, UniProt Q06187, C481S); experiment: BTK protein degradation assay (Western blotting), C481S BTK; assay type: cell-based; conditions: concentration range accounting for 50% degradation of C481S BTK protein, 293T BTK MUT (C481S) cells
T1 construct: expressed in transfected cells; host or cells: 293T BTK MUT (C481S) cells
Procedure: TMD-8, RAMOS, or 293T BTK MUT (C481S) cells were treated with the synthesized compounds and measured for intracellular BTK protein levels by Western blotting. The protocol of the experiment using TMD-8 cells is as follows.
The 12-well plates were treated as follows. A 10 mM stock was 1/10 diluted in series with DMSO ([…]) to form final concentrations of 10, 1, 0.1, 0.01, 0.001, and 0.0001 mM. The compounds with such concentrations were applied to cells, followed by harvesting the cells 24 hours later. For a negative control, a 1/10 dilution of DMSO in the medium (3 mL DMSO+27 mL medium) was used.
The 1-mL cell culture in each well was passed many times through a pipette and then transferred into a 1.5-mL microtube before centrifugation (500 g, 5 min, 4° C.). The supernatant was discarded and the cell pellet was washed with PBS. After centrifugation (500 g, 5 min, 4° C.) again, the supernatant was discarded and the cell pellet was taken.
A lysis buffer was prepared as follows. RIPA buffer (Biosesang, RC2038-050-00)+0.5 mM PMSF (SIGMA, P7626)+1×Protease/Phosphatase Inhibitor (Cell signaling, 5872S) was added in an amount […] per well and left for 30 minutes on ice (vortexing at 0 and 30 minutes) before sonication (5 cycles of pulse for 10 seconds and rest for 30 seconds, 70% amplification). The supernatant obtained by centrifugation (15000 g, 15 min, 4° C.) was transferred into a new microtube. Cells in each well of 96-well plates were 1/2 diluted with the RIPA buffer and incubated at 37° C. for 30 minutes with […] of a 50:1 mixture of BCA reagents A and B in BCA Protein Assay Kit (iNtRON, 21071). After being cooled for 10 minutes, the 96-well plates were measured for absorbance at 562 nm on the BioTek, SYNERGY H1 microplate reader. Samples were prepared by protein quantification based on the absorbance measurements and then boiled at 70° C. for 10 minutes. The sample buffer used in the case was prepared by mixing a NuPAGE or a Bolt 4× sample buffer (Invitrogen) and its 10× sample reducing agent depending on the gel to be used, and protein dilution was made in a RIPI buffer.
The samples were loaded in the same amount into a NuPAGE or Bolt Bis-tris 4-12% gradient gel and allowed to run therein (200 V, 35 minutes). The separated proteins were transferred onto a […] NC membrane, using Trans-blot Turbo (BIO-RAD) (1.3 A constant, 25V limit, 15 minutes). The membrane was blocked at room temperature for 1 hour with skim milk or Intercept Blocking Buffer (LI-COR, 927-60001):0.1% TBST=1:1. The membrane was incubated with Anti BTK Rabbit (1:1,000 in 5% skim milk/0.2% TBST, size: 77 kDa, Cell signaling Technology) at 4° C. overnight O/N or at room temperature for 2 hours and with Anti GAPDH Rabbit (1:10,000 in 5% BSA/0.2% TBST, size: 36 kDa, GENETEX) and Anti β-actin mouse (1:10,000 in 5% BSA/0.2% TBST, RT, size: 43 kDa, GENETEX) at room temperature for 1 or 3 hours. Then, the membrane was washed three times with 0.5% TBST for 5 minutes each time before incubation with the second antibody Anti-Rabbit IgG (1:5,000 in 5% Skim milk/TBST, CST), IRDye® 800CW Goat anti-Rabbit IgG Secondary Antibody (1:10,000 in 5% skim/TBST, RT 45 min), or IRDye® 680RD Goat anti-Mouse IgG Secondary Antibody (1:10,000 in 5% skim/TBST, RT 45 min) for 45 minutes at room temperature in a rocker. The membrane was washed five times with 0.5% TBST for 5 minutes in each time, followed by detection with LI-COR, Odyssey. In this regard, the detection proceeded, as it was, for house-keeping genes while using SuperSignal West Pico PLUS Chemiluminescent Substrate or SuperSignal West femto Maximum Sensitivity Substrate for BTK detection.
According to the concentration ranges of compounds accounting for 50% degradation of WT BTK protein and C481S BTK protein, the activities are expressed as +++(0.0001-0.01 μM), ++(0.01-1 μM), +(1-10 μM), −(>10 μM), and NT (not tested). […]

WT BTK protein = target: T2, WT BTK protein (Homo sapiens, UniProt Q06187); experiment: BTK protein degradation assay (Western blotting), WT BTK; assay type: cell-based; conditions: concentration range accounting for 50% degradation of WT BTK protein, TMD-8 or RAMOS cells, 24 hours
T2 construct: measured for intracellular BTK protein levels by Western blotting; endogenous in cells; host or cells: TMD-8 or RAMOS cells
Procedure, shortened: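 BTK levels were read by Western blotting (GAPDH and β-actin normalisers) in RIPA lysates of TMD-8 cells exposed to compounds for 24 h at 1×10^6 cells/mL. Results scored in ranges of the concentration producing 50% loss of WT BTK.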

T1 sequence (Q06187 whole entry C481S): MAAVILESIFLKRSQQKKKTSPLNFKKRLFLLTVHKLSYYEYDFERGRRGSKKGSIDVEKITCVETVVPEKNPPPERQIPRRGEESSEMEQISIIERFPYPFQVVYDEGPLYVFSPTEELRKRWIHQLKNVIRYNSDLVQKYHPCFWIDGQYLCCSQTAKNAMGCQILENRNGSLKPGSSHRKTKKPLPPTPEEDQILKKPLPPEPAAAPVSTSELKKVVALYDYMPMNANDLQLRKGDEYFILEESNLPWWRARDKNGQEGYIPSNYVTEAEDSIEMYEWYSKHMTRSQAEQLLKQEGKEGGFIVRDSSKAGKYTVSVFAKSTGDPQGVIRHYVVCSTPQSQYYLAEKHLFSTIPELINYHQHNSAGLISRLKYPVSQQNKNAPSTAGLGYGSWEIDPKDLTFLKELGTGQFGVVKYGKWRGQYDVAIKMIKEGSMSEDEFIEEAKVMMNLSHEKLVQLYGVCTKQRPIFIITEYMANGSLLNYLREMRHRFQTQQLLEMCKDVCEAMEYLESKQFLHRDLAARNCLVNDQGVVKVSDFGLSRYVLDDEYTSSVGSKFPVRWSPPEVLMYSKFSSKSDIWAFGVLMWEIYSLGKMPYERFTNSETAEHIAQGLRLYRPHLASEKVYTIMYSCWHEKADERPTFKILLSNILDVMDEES
T2 sequence (Q06187 whole entry): as the sequence (Q06187 whole entry C481S) above, with S481C counted along it

Row | SMILES | DC50 (C481S BTK protein) | DC50 (WT BTK protein)
1 | Cc1cccc(C)c1Nc1nn(C)c2nc(Nc3ccc4c(c3)CN(C(=O)COCCOCCNC(=O)C3CCN(c5cccc6c5C(=O)N(C5CCC(=O)NC5=O)C6=O)CC3)CC4)ncc12 (centres unmarked) [Compound 4, N-(2-(2-(2-(7-((3-((2,6-Dimethylphenyl)amino)-1-methyl-1H-pyrazolo[3,4-d]pyrimidin-6-yl)amino)-3,4-dihydroisoquinolin-2 (1H)-yl)-2-oxoethoxy)ethoxy)ethyl)-1-(2-(2,6-dioxopiperidin-3-yl)-1,3-dioxoisoindolin-4-yl)piperidine-4-carboxamide] | 1000 to 10000 nM | 10 to 1000 nM
2 | Cc1cccc(C)c1Nc1nn(C)c2nc(Nc3ccc4c(c3)CN(C(=O)CCCCCCCCCCCNc3cccc5c3C(=O)N(C3CCC(=O)NC3=O)C5=O)CC4)ncc12 (centres unmarked) [Compound 7, 4-((12-(7-((3-((2,6-Dimethylphenyl)amino)-1-methyl-1H-pyrazolo[3,4-d]pyrimidin-6-yl)amino)-3,4-dihydroisoquinolin-2 (1H)-yl)-12-oxododecyl)amino)-2-(2,6-dioxopiperidin-3-yl)isoindoline-1,3-dione] | > 10000 nM | 0.1 to 10 nM
3 | Cc1cccc(C)c1Nc1nn(C)c2nc(Nc3ccc4c(c3)CN(C(=O)COCCOCCOCCOCCNC(=O)CNc3cccc5c3C(=O)N(C3CCC(=O)NC3=O)C5=O)CC4)ncc12 (centres unmarked) [Compound 10, N-(14-(7-((3-((2,6-Dimethylphenyl)amino)-1-methyl-1H-pyrazolo[3,4-d]pyrimidin-6-yl)amino)-3,4-dihydroisoquinolin-2 (1H)-yl)-14-oxo-3,6,9,12-tetraoxatetradecyl)-2-((2-(2,6-dioxopiperidin-3-yl)-1,3-dioxoisoindolin-4-yl)amino)acetamide] | > 10000 nM | 10 to 1000 nM
4 | Cc1cccc(C)c1Nc1nn(C)c2nc(Nc3ccc4c(c3)CN(Cc3cn(CCOCCOCCNC(=O)CNc5cccc6c5C(=O)N(C5CCC(=O)NC5=O)C6=O)nn3)CC4)ncc12 (centres unmarked) [Compound 11] | > 10000 nM | 0.1 to 10 nM
5 | Cc1cccc(C)c1Nc1nn(C)c2nc(Nc3ccc4c(c3)CN(Cc3cn(CCOCCOCCNC(=O)CNc5ccc6c(c5)C(=O)N(C5CCC(=O)NC5=O)C6=O)nn3)CC4)ncc12 (centres unmarked) [Compound 12, N-(2-(2-(2-(4-((7-((3-((2,6-Dimethylphenyl)amino)-1-methyl-1H-pyrazolo[3,4-d]pyrimidin-6-yl)amino)-3,4-dihydroisoquinolin-2 (1H)-yl)methyl)-1H-1,2,3-triazol-1-yl)ethoxy)ethoxy)ethyl)-2-((2-(2,6-dioxopiperidin-3-yl)-1,3-dioxoisoindolin-5-yl)amino)acetamide] | > 10000 nM | 10 to 1000 nM
6 | Cc1cccc(C)c1Nc1nn(C)c2nc(Nc3ccc4c(c3)CN(C(=O)COCCOCCOCCOCCNc3cccc5c3C(=O)N(C3CCC(=O)NC3=O)C5=O)CC4)ncc12 (centres unmarked) [Compound 13] | 1000 to 10000 nM | 0.1 to 10 nM
7 | Cc1cccc(C)c1Nc1nn(C)c2nc(Nc3ccc4c(c3)CN(C(=O)CCOCCOCCOCCOCCNc3cccc5c3C(=O)N(C3CCC(=O)NC3=O)C5=O)CC4)ncc12 (centres unmarked) [Compound 14] | > 10000 nM | 0.1 to 10 nM
8 | Cc1cccc(C)c1Nc1nn(C)c2nc(Nc3ccc4c(c3)CN(C(=O)CCOCCOCCOCCOCCNC(=O)COc3ccc5c(c3)C(=O)N(C3CCC(=O)NC3=O)C5=O)CC4)ncc12 (centres unmarked) [Compound 16, N-(15-(7-((3-((2,6-Dimethylphenyl)amino)-1-methyl-1H-pyrazolo[3,4-d]pyrimidin-6-yl)amino)-3,4-dihydroisoquinolin-2 (1H)-yl)-15-oxo-3,6,9,12-tetraoxapentadecyl)-2-((2-(2,6-dioxopiperidin-3-yl)-1,3-dioxoisoindolin-5-yl)oxy)acetamide] | 1000 to 10000 nM | 0.1 to 10 nM

More lines, now with the values ahead:

Row | DC50 (C481S BTK protein) | DC50 (WT BTK protein) | SMILES
9 | 10 to 1000 nM | 10 to 1000 nM | Cc1cccc(C)c1Nc1nn(C)c2nc(Nc3ccc4c(c3)CN(C(=O)COCCOCCOCCOCCNC(=O)C3CCN(c5cccc6c5C(=O)N(C5CCC(=O)NC5=O)C6=O)CC3)CC4)ncc12 (centres unmarked) [Compound 5, N-(14-(7-((3-((2,6-Dimethylphenyl)amino)-1-methyl-1H-pyrazolo[3,4-d]pyrimidin-6-yl)amino)-3,4-dihydroisoquinolin-2 (1H)-yl)-14-oxo-3,6,9,12-tetraoxatetradecyl)-1-(2-(2,6-dioxopiperidin-3-yl)-1,3-dioxoisoindolin-4-yl)piperidine-4-carboxamide]
10 | 10 to 1000 nM | 10 to 1000 nM | COCCOc1cc(C)c(Nc2nn(C)c3nc(Nc4ccc5c(c4)C(C)(C)N(C(=O)CCC(=O)Nc4ccc(OCCOCCOCCOCCNc6cccc7c6C(=O)N(C6CCC(=O)NC6=O)C7=O)cc4)CC5)ncc23)c(C)c1 (centres unmarked) [Compound 6, N-(4-(2-(2-(2-(2-((2-(2,6-Dioxopiperidin-3-yl)-1,3-dioxoisoindolin-4-yl)amino)ethoxy)ethoxy)ethoxy)ethoxy)phenyl)-4-(7-((3-((4-(2-methoxyethoxy)-2,6-dimethylphenyl)amino)-1-methyl-1H-pyrazolo[3,4-d]pyrimidin-6-yl)amino)-1,1-dimethyl-3,4-dihydroisoquinolin-2 (1H)-yl)-4-oxobutanamide]
11 | 10 to 1000 nM | 0.1 to 10 nM | Cc1cccc(C)c1Nc1nn(C)c2nc(Nc3ccc4c(c3)CN(C(=O)COCCOCCOCCOCCNc3ccc5c(c3)C(=O)N(C3CCC(=O)NC3=O)C5=O)CC4)ncc12 (centres unmarked) [Compound 8, 5-((14-(7-((3-((2,6-Dimethylphenyl)amino)-1-methyl-1H-pyrazolo[3,4-d]pyrimidin-6-yl)amino)-3,4-dihydroisoquinolin-2 (1H)-yl)-14-oxo-3,6,9,12-tetraoxatetradecyl)amino)-2-(2,6-dioxopiperidin-3-yl)isoindoline-1,3-dione]
12 | > 10000 nM | 10 to 1000 nM | Cc1cccc(C)c1Nc1nn(C)c2nc(Nc3ccc4c(c3)CN(C(=O)COCCOCCOCCOCCNC(=O)COc3ccc5c(c3)C(=O)N(C3CCC(=O)NC3=O)C5=O)CC4)ncc12 (centres unmarked) [Compound 9, N-(14-(7-((3-((2,6-Dimethylphenyl)amino)-1-methyl-1H-pyrazolo[3,4-d]pyrimidin-6-yl)amino)-3,4-dihydroisoquinolin-2 (1H)-yl)-14-oxo-3,6,9,12-tetraoxatetradecyl)-2-((2-(2,6-dioxopiperidin-3-yl)-1,3-dioxoisoindolin-5-yl)oxy)acetamide]
13 | 1000 to 10000 nM | 0.1 to 10 nM | Cc1cccc(C)c1Nc1nn(C)c2nc(Nc3ccc4c(c3)CN(C(=O)CCOCCOCCOCCOCCNc3ccc5c(c3)C(=O)N(C3CCC(=O)NC3=O)C5=O)CC4)ncc12 (centres unmarked) [Compound 15, 5-((15-(7-((3-((2,6-Dimethylphenyl)amino)-1-methyl-1H-pyrazolo[3,4-d]pyrimidin-6-yl)amino)-3,4-dihydroisoquinolin-2 (1H)-yl)-15-oxo-3,6,9,12-tetraoxapentadecyl)amino)-2-(2,6-dioxopiperidin-3-yl)isoindoline-1,3-dione]

— US12161722B2, “Bifunctional heterocyclic compound having BTK degradation function via ubiquitin proteasome pathway, and use thereof” (KOREA RESEARCH INSTITUTE OF CHEMICAL TECHNOLOGY, priority 2021, dated 2024)
